By EC30 is commonly meant the concentration at which the effect reaches the 30% level.

The target of the first test is T1, F508del (Homo sapiens, UniProt P13569, DEL508-508).
T1 construct: expressed in transfected cells
T1 sequence (P13569 with tags, fused parts or gaps DEL508-508): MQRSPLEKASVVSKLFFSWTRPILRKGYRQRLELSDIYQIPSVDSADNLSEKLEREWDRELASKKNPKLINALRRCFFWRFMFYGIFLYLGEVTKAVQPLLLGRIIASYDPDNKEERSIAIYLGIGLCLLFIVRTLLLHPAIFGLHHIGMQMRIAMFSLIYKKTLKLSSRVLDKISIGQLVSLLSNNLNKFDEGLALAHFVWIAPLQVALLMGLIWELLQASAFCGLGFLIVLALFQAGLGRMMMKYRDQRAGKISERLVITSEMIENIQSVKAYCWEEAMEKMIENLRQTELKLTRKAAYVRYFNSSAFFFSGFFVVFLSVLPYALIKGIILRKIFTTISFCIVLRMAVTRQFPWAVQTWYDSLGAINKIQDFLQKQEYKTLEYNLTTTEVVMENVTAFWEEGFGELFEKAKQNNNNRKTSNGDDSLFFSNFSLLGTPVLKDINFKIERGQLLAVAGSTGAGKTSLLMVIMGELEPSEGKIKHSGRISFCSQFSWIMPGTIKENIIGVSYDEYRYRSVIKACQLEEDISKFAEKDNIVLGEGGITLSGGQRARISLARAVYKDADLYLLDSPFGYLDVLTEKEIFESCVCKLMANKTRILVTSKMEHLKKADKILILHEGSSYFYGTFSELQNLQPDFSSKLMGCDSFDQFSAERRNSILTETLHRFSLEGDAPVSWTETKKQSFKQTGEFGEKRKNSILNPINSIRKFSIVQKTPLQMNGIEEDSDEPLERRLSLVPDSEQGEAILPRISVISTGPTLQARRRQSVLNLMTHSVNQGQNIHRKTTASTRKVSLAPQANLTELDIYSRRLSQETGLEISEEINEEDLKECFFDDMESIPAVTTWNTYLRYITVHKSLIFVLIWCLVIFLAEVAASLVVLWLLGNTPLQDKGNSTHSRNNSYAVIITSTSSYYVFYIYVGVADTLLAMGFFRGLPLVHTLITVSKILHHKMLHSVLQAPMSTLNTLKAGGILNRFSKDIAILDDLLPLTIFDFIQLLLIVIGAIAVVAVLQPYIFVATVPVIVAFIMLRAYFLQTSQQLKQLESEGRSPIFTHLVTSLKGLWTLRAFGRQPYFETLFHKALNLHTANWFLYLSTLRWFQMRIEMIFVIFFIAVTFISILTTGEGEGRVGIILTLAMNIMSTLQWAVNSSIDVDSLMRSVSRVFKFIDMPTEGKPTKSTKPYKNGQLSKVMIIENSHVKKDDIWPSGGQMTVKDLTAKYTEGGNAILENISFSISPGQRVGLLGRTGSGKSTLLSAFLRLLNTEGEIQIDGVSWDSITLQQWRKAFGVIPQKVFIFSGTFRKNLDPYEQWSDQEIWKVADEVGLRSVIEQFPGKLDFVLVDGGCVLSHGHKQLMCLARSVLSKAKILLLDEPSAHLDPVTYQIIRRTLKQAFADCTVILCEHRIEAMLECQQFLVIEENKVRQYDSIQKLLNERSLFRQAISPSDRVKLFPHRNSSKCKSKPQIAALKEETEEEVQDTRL
Put plainly: Protocol 2: FRET membrane potential optical assay (VIPR), identification of correction compounds. The class given is cell-based. The following applies: F508del CFTR modulator activity; compounds of Table 1; read-out: EC30. The essentials: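 Mouse NIH3T3 cells, stable F508del; cpd 16 hrs, 37° C., serum-free; pos ctrl 27° C. 16 hrs. Rinse in Krebs Ringers, dye load, then add 10 μM forskolin + 20 μM genistein with Cl^−-free (gluconate) medium; depolarization by FRET voltage dyes.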
As for `COc1ccc(-c2ccc(C(=O)NS(=O)(=O)c3cccnc3N)c(N3C[C@@H](C)CC3(C)C)n2)cn1` [Compound 2244, N-[(2-amino-3-pyridyl)sulfonyl]-6-(6-methoxy-3-pyridyl)-2-[(4S)-2,2,4-trimethylpyrrolidin-1-yl]pyridine-3-carboxamide], the EC30 was less than 3000 nM. The same measure, in the same setting: with `COc1ccc(Cl)cc1COc1cccc(S(=O)(=O)NC(=O)c2cccnc2N2CC(C)CC2(C)C)n1` (centres unmarked) [Compound 2645, N—[[6-[(5-chloro-2-methoxy-phenyl)methoxy]-2-pyridyl]sulfonyl]-2-(2,2,4-trimethylpyrrolidin-1-yl)pyridine-3-carboxamide] the figure was less than 3000 nM; with `COc1ccc(OC)c(Nc2cccc(S(=O)(=O)NC(=O)c3cccnc3N3CC(C)CC3(C)C)n2)c1` (centres unmarked) [Compound 2179, N—[[6-(2,5-dimethoxyanilino)-2-pyridyl]sulfonyl]-2-(2,2,4-trimethylpyrrolidin-1-yl)pyridine-3-carboxamide], less than 3000 nM; with `CC1CN(c2ncccc2C(=O)NS(=O)(=O)c2cccc(OCc3cccc(N(C)C)c3)n2)C(C)(C)C1` (centres unmarked) [Compound 2012, N—[[6-[[3-(dimethylamino)phenyl]methoxy]-2-pyridyl]sulfonyl]-2-(2,2,4-trimethylpyrrolidin-1-yl)pyridine-3-carboxamide], less than 3000 nM. Turning to `Cc1ccc(O)c(-c2ccc(C(=O)NS(=O)(=O)c3ccc[nH]c3=O)c(N3C[C@@H](C)CC3(C)C)n2)c1` [Compound 2174, 6-(2-hydroxy-5-methyl-phenyl)-N-[(2-oxo-1H-pyridin-3-yl)sulfonyl]-2-[(4S)-2,2,4-trimethylpyrrolidin-1-yl]pyridine-3-carboxamide], the concentration for an effect of 30% (EC30) is 3000 to 10000 nM. Regarding `C[C@@H]1CN(c2nc(C3CC4CCC3C4)ccc2C(=O)NS(=O)(=O)c2cccnc2N)C(C)(C)C1` (stereo partly drawn) [Compound 2097, N-[(2-amino-3-pyridyl)sulfonyl]-6-norbornan-2-yl-2-[(4S)-2,2,4-trimethylpyrrolidin-1-yl]pyridine-3-carboxamide], the EC30 was less than 3000 nM.

With `CC(C)COc1ccccc1-c1ccc(C(=O)NS(=O)(=O)c2cccnc2N)c(N2C[C@@H](C)CC2(C)C)n1` [Compound 2448, N-[(2-amino-3-pyridyl)sulfonyl]-6-(2-isobutoxyphenyl)-2-[(4S)-2,2,4-trimethylpyrrolidin-1-yl]pyridine-3-carboxamide], the EC30 was less than 3000 nM. `C[C@@H]1CN(c2nc(-c3cccc(F)c3)ccc2C(=O)NS(=O)(=O)c2cccc(N)n2)C(C)(C)C1` [Compound 2566, N-[(6-amino-2-pyridyl)sulfonyl]-6-(3-fluorophenyl)-2-[(4S)-2,2,4-trimethylpyrrolidin-1-yl]pyridine-3-carboxamide]: the EC30 was less than 3000 nM. For the compound `C[C@@H]1CN(c2nc(-c3ccc(F)c(F)c3)ccc2C(=O)NS(=O)(=O)N2CC[C@H](N)C2)C(C)(C)C1` [Compound 2229, N-[(3S)-3-aminopyrrolidin-1-yl]sulfonyl-6-(3,4-difluorophenyl)-2-[(4S)-2,2,4-trimethylpyrrolidin-1-yl]pyridine-3-carboxamide], the EC30 fell in the range of 3000 to 10000 nM. Take `C[C@@H]1CN(c2nc(-c3cccc(Cl)c3)ccc2C(=O)NS(=O)(=O)c2cccnc2N)C(C)(C)C1` [Compound 2183, N-[(2-amino-3-pyridyl)sulfonyl]-6-(3-chlorophenyl)-2-[(4S)-2,2,4-trimethylpyrrolidin-1-yl]pyridine-3-carboxamide]: the 30% effect concentration (EC30) was less than 3000 nM. As to `C[C@@H]1CN(c2nc(-c3ccc(F)cc3O)ccc2C(=O)NS(=O)(=O)c2cccnc2N)C(C)(C)C1` [Compound 2653, N-[(2-amino-3-pyridyl)sulfonyl]-6-(4-fluoro-2-hydroxy-phenyl)-2-[(4S)-2,2,4-trimethylpyrrolidin-1-yl]pyridine-3-carboxamide], the EC30 is less than 3000 nM. As for `CC1CN(c2ncccc2C(=O)NS(=O)(=O)c2cccc(OCC3CCOCC3)n2)C(C)(C)C1` (centres unmarked) [Compound 2032, N—[[6-(tetrahydropyran-4-ylmethoxy)-2-pyridyl]sulfonyl]-2-(2,2,4-trimethylpyrrolidin-1-yl)pyridine-3-carboxamide], the 30% effect concentration (EC30) was 3000 to 10000 nM. As to `CC1CN(c2ncccc2C(=O)NS(=O)(=O)c2cccc(N3CCCC(Cc4ccccc4)C3)n2)C(C)(C)C1` (centres unmarked) [Compound 2297, N—[[6-(3-benzyl-1-piperidyl)-2-pyridyl]sulfonyl]-2-(2,2,4-trimethylpyrrolidin-1-yl)pyridine-3-carboxamide], the EC30 was less than 3000 nM.

The same test, now with this note: Table 3; compounds of Table 1 as modulators of CFTR activity; protocol not stated.
As for `Cc1cc(C)c(Oc2nc3ccccc3cc2C(=O)NS(=O)(=O)c2ccncc2)c(C)c1` [Compound 240, N-(4-pyridylsulfonyl)-2-(2,4,6-trimethylphenoxy)quinoline-3-carboxamide], the concentration for an effect of 30% (EC30) entry was “++ (“++” means between 3 uM and 10 uM)”. The same measure, in the same setting: then `CC(C)Oc1ccc(-c2ccc(C(=O)NS(=O)(=O)c3cccc(N)n3)c(N3CCC(Cc4ccccc4)C3)n2)cn1` (centres unmarked) [Compound 647, N-[(6-amino-2-pyridyl)sulfonyl]-2-(3-benzylpyrrolidin-1-yl)-6-(6-isopropoxy-3-pyridyl)pyridine-3-carboxamide], with “+++ (“+++” means <3 uM)”; and `COc1ncc(-c2ccc(C(=O)NS(=O)(=O)c3cccc(N)n3)c(Oc3ccc(C)cc3C)n2)cc1C` [Compound 533, N-[(6-amino-2-pyridyl)sulfonyl]-2-(2,4-dimethylphenoxy)-6-(6-methoxy-5-methyl-3-pyridyl)pyridine-3-carboxamide], with “+++ (“+++” means <3 uM)”. With `Cc1cc(C)c(Oc2cc(C(C)(C)C)ncc2C(=O)NS(=O)(=O)c2cccc(N)c2)c(C)c1` [Compound 338, N-(3-aminophenyl)sulfonyl-6-tert-butyl-4-(2,4,6-trimethylphenoxy)pyridine-3-carboxamide], the concentration for an effect of 30% (EC30) entry is given as “+++ (“+++” means <3 uM)”.

As to `Cc1cc(C)c(Oc2nc(C(C)(C)C)ccc2C(=O)NS(=O)(=O)c2nc(N)ccc2F)c(C)c1` [Compound 226, N-[(6-Amino-3-fluoro-2-pyridyl)sulfonyl]-6-tert-butyl-2-(2,4,6-trimethylphenoxy)pyridine-3-carboxamide], the concentration for an effect of 30% (EC30) result is given as “+++ (“+++” means <3 uM)”.

Consider `CCOc1ccc(-c2ccc(C(=O)NS(=O)(=O)c3nccnc3N)c(Oc3ccc(C)cc3C)n2)cc1` [Compound 434, N-(3-aminopyrazin-2-yl)sulfonyl-2-(2,4-dimethylphenoxy)-6-(4-ethoxyphenyl)pyridine-3-carboxamide], for which the 30% effect concentration (EC30) result is reported as “+++ (“+++” means <3 uM)”. For the compound `CC(C)c1ccc(-c2ccc(C(=O)NS(=O)(=O)c3ccc[nH]c3=O)c(N3[C@H](C)CC[C@@H]3C)n2)cc1` [Compound 589, 2-[(2S,5R)-2,5-dimethylpyrrolidin-1-yl]-6-(4-isopropylphenyl)-N-[(2-oxo-1H-pyridin-3-yl)sulfonyl]pyridine-3-carboxamide], the EC30 entry was “+++ (“+++” means <3 uM)”. Same read-out and setting: then `CC(C)COc1cc(F)cc(-c2ccc(C(=O)NS(=O)(=O)c3cccc(N)n3)c(N3CCCC3(C)Cc3ccccc3)n2)c1` (centres unmarked) [Compound 663, N-[(6-amino-2-pyridyl)sulfonyl]-2-(2-benzyl-2-methyl-pyrrolidin-1-yl)-6-(3-fluoro-5-isobutoxy-phenyl)pyridine-3-carboxamide], with “+++ (“+++” means <3 uM)”; and `Cc1ccc(Oc2nc(-c3cc(F)cc(OC(C)C)c3)ccc2C(=O)NS(=O)(=O)c2nccnc2N)c(C)c1` [Compound 559, N-(3-aminopyrazin-2-yl)sulfonyl-2-(2,4-dimethylphenoxy)-6-(3-fluoro-5-isopropoxy-phenyl)pyridine-3-carboxamide], with “+++ (“+++” means <3 uM)”; and `CC(C)COc1cc(F)cc(-c2ccc(C(=O)NS(=O)(=O)c3cccc(N)n3)c(N3CC[C@H](C)C3(C)C)n2)c1` [Compound 547, N-[(6-amino-2-pyridyl)sulfonyl]-6-(3-fluoro-5-isobutoxy-phenyl)-2-[(3S)-2,2,3-trimethylpyrrolidin-1-yl]pyridine-3-carboxamide], with “+++ (“+++” means <3 uM)”.

Regarding `COc1cccc2c1cc(C(=O)NS(=O)(=O)c1ccncc1)n2Cc1c(C)cc(C)cc1C` [Compound 36, 4-methoxy-N-(4-pyridylsulfonyl)-1-[(2,4,6-trimethylphenyl)methyl]indole-2-carboxamide], the EC30 result is reported as “+++ (“+++” means <3 uM)”. As to `CC1(C)CCCc2cc(C(=O)NS(=O)(=O)c3cccc(N)c3)c(-c3ccccc3)nc21` [Compound 685, N-(3-aminophenyl)sulfonyl-8,8-dimethyl-2-phenyl-6,7-dihydro-5H-quinoline-3-carboxamide], the EC30 result was “+++ (“+++” means <3 uM)”. Regarding `Cc1cccc(C)c1Cn1nc(-c2ccccc2Cl)cc1C(=O)NS(=O)(=O)c1ccccc1` [Compound 339, N-(benzenesulfonyl)-5-(2-chlorophenyl)-2-[(2,6-dimethylphenyl)methyl]pyrazole-3-carboxamide], the 30% effect concentration (EC30) entry is on record as “+++ (“+++” means <3 uM)”.

`Cc1ccccc1Oc1nc(-c2cc(F)cc(OCC(C)C)c2)ccc1C(=O)NS(=O)(=O)c1cccc(N)n1` [Compound 778, N-[(6-amino-2-pyridyl)sulfonyl]-6-(3-fluoro-5-isobutoxy-phenyl)-2-(2-methylphenoxy)pyridine-3-carboxamide]: the 30% effect concentration (EC30) result is on record as “+++ (“+++” means <3 uM)”. Turning to `Cc1ccccc1Oc1nc(-c2cc(F)cc(OCC(C)C)c2)ccc1C(=O)NS(=O)(=O)c1ccn[nH]1` [Compound 738, 6-(3-fluoro-5-isobutoxy-phenyl)-2-(2-methylphenoxy)-N-(1H-pyrazol-5-ylsulfonyl)pyridine-3-carboxamide], the EC30 result was “+++ (“+++” means <3 uM)”.

For `Cc1cc(C)c(Oc2nc(C(C)(C)C)ccc2C(=O)NS(=O)(=O)c2cccc(N)n2)c(C)c1` [Compound 228, N-[(6-amino-2-pyridyl)sulfonyl]-6-tert-butyl-2-(2,4,6-trimethylphenoxy)pyridine-3-carboxamide], the 30% effect concentration (EC30) entry is given as “+++ (“+++” means <3 uM)”.

The record behind these values is US10758534B2 (Vertex Pharmaceuticals Incorporated, priority 2014, dated 2020).
